The source of these data is ChEMBL document CHEMBL1124713, “Synthesis of N-[N-(4-deoxy-4-amino-10-methylpteroyl)-4-fluoroglutamyl]- gamma-glutamate, an unusual substrate for folylpoly-gamma-glutamate synthetase and gamma-glutamyl hydrolase” (J Med Chem, 1990).

Common to all, as to type: ADME
A short description of data set [1]: Kinetic constant relative(Vmax) was determined in FPGS-catalyzed reaction.
Data set [2] is described as follows: Ratio of relative Vmax to Km was determined.
The test system of data set [3] is FPGS (folylpolyglutamate synthetase). Description: Kinetic constant(Km) was determined in FPGS-catalyzed reaction.

Regarding `CN(Cc1cnc2nc(N)nc(N)c2n1)c1ccc(C(=O)N[C@@H](CCC(=O)O)C(=O)O)cc1` [METHOTREXATE], the “Relative Vmax” value in data set [1] stood at 1. Also, the Ratio in data set [2] was 0.024. For the same compound, the Km in data set [3] is 42 µM.

`CN(Cc1cnc2nc(N)nc(N)c2n1)c1ccc(C(=O)NC(CCC(=O)NC(CCC(=O)O)C(=O)O)C(=O)O)cc1` (centres undefined): the “Relative Vmax” value in data set [1] came out at 0.45. For the same compound, in data set [2], the Ratio is recorded as 0.012. The Km in data set [3] was determined as 38 µM.

As for `CN(Cc1cnc2nc(N)nc(N)c2n1)c1ccc(C(=O)NC(CC(F)C(=O)NC(CCC(=O)O)C(=O)O)C(=O)O)cc1` (centres undefined), the “Relative Vmax” value in data set [1] was 0.23. The Ratio in data set [2] was determined as 0.0023. Moreover, in data set [3], the Km was 100 µM.
